Reference: ChEMBL document CHEMBL4842374, “Natural inspired piperine-based sulfonamides and carboxylic acids as carbonic anhydrase inhibitors: Design, synthesis and biological evaluation” (Eur J Med Chem, 2021)

Key:
Carbonic anhydrase 1 = Carbonic anhydrase 1 (Homo sapiens, UniProt P00915); experiment: Inhibition of human CA1 measured after 15 mins by stopped flow carbon dioxide anhydrase assay
Carbonic anhydrase 2 = Carbonic anhydrase 2 (Homo sapiens, UniProt P00918); experiment: Inhibition of human CA2 measured after 15 mins by stopped flow carbon dioxide anhydrase assay
Carbonic anhydrase 9 = Carbonic anhydrase 9 (Homo sapiens, UniProt Q16790)
Description: Inhibition of human CA9 measured after 15 mins by stopped flow carbon dioxide anhydrase assay

Carbonic anhydrase 12 = Carbonic anhydrase 12 (Homo sapiens, UniProt O43570); experiment: Inhibition of human CA12 measured after 15 mins by stopped flow carbon dioxide anhydrase assay
Sequence of Carbonic anhydrase 12 (O43570 whole entry): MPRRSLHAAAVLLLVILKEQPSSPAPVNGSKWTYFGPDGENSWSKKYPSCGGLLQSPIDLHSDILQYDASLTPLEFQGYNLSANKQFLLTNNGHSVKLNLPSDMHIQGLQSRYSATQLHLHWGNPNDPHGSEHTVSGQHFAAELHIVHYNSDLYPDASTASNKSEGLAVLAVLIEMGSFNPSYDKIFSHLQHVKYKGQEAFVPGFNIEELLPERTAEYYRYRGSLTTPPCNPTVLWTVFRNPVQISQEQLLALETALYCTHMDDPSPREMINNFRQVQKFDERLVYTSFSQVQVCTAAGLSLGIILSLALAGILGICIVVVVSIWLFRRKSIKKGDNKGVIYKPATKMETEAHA

MCF7 [1] = experiment: cells; format: functional, cell-based; conditions: Homo sapiens, MCF7, 48 h
Description: Antiproliferative activity against human MCF7 cells assessed as inhibition of cell proliferation measured after 48 hrs by MTT assay

MCF7 [2] = experiment: Induction of apoptosis in human MCF7 cells assessed as early apoptotic cells measured by AnnexinV/FITC staining based flow cytometry assay ( Rvb = 0.52%); format: functional
MCF7 [3] = experiment: Induction of apoptosis in human MCF7 cells assessed as late apoptotic cells measured by AnnexinV/FITC staining based flow cytometry assay ( Rvb = 0.17%); format: functional
MCF7 [4] = experiment: Induction of apoptosis in human MCF7 cells assessed as necrotic cells measured by AnnexinV/FITC staining based flow cytometry assay ( Rvb = 0.74%); format: functional

Sequence of Carbonic anhydrase 1 (P00915 whole entry): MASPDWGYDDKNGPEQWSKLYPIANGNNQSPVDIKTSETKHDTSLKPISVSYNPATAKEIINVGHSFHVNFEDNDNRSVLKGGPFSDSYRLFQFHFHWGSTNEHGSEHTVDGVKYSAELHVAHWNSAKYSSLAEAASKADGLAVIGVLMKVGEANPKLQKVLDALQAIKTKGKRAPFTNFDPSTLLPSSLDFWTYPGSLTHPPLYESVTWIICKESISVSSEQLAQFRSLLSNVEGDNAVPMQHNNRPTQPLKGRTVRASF

SMILES	Ki (Carbonic anhydrase 1) [µM]	Ki (Carbonic anhydrase 2) [µM]	Ki (Carbonic anhydrase 9) [µM]	Ki (Carbonic anhydrase 12) [µM]	also measured
Cc1ccc(NC(=O)N/C=C/C=C/c2ccc3c(c2)OCO3)cc1S(N)(=O)=O	–	–	0.903	–	–
O=C(N/C=C/C=C/c1ccc2c(c1)OCO2)Nc1cccc(C(=O)O)c1	> 100	–	24.8	–	–
CC(=O)c1ccc(NC(=O)N/C=C/C=C/c2ccc3c(c2)OCO3)cc1	> 100	> 100	> 100	> 100	–
COC(=O)c1cccc(NC(=O)N/C=C/C=C/c2ccc3c(c2)OCO3)c1	> 100	> 100	> 100	> 100	–
NS(=O)(=O)c1ccc(NC(=O)N/C=C/C=C/c2ccc3c(c2)OCO3)cc1	–	–	0.0387	–	IC50 (MCF7 [1]): 2.17 µM; Activity (MCF7 [2]): 1.91%; Activity (MCF7 [3]): 23.14%; Activity (MCF7 [4]): 14.19%

Now from value to compound, other results behind:

Ki (Carbonic anhydrase 1) [µM]	Ki (Carbonic anhydrase 2) [µM]	Ki (Carbonic anhydrase 9) [µM]	Ki (Carbonic anhydrase 12) [µM]	SMILES	also measured
> 100	> 100	> 100	> 100	COC(=O)c1ccc(NC(=O)N/C=C/C=C/c2ccc3c(c2)OCO3)cc1	–
> 100	–	16.1	–	O=C(N/C=C/C=C/c1ccc2c(c1)OCO2)Nc1ccc(C(=O)O)cc1	–
–	–	0.0682	–	NS(=O)(=O)c1ccc(CCNC(=O)N/C=C/C=C/c2ccc3c(c2)OCO3)cc1	–
> 100	–	30.3	–	O=C(N/C=C/C=C/c1ccc2c(c1)OCO2)Nc1ccccc1C(=O)O	–
–	–	0.739	–	NS(=O)(=O)c1ccccc1NC(=O)N/C=C/C=C/c1ccc2c(c1)OCO2	–
> 100	> 100	> 100	> 100	O=C(N/C=C/C=C/c1ccc2c(c1)OCO2)Nc1ccc(S(=O)(=O)Nc2nccs2)cc1	–
–	–	0.319	–	NS(=O)(=O)c1cccc(NC(=O)N/C=C/C=C/c2ccc3c(c2)OCO3)c1	–
